Source: article PMC3551932, “STK295900, a Dual Inhibitor of Topoisomerase 1 and 2, Induces G2 Arrest in the Absence of DNA Damage” (PLoS ONE, 2013)

Experiments:
[1] = test system: hTERT RPE-1 cells; assay: Cell growth inhibition assay, hTERT RPE-1; assay type: cell-based, human; conditions: Table 2 comparison, hTERT RPE-1, non-cancer, growth up to 4 days
From the text: (§1) Human epitheloid cervical carcinoma HeLa cells, human breast adenocarcinoma MCF7 and MDA-MB-231cells, human hepatocellular carcinoma HepG2 cells, human colon adenocarcinoma HT-29 cells, and human colorectal carcinoma HCT-116 cells were purchased from ATCC® and maintained in DMEM medium. Human prostate carcinoma PC-3 cells (purchased from ATCC®), human gastric carcinoma SNU-484 and SNU-601(obtained from Korean Cell Line Bank (KCLB)), human leukemia K-562 and HL-60 cells (purchased from ATCC®), immortalized human prostate epithelial 267B1cells, and immortalized human embryonic lung fibroblast MRC5CV1 cells were maintained in RPMI 1640 medium whereas immortalized retinal pigment epithelial hTERT RPE-1 cells (purchased from ATCC®) were maintained in DMEM/F12 medium. All cell lines were cultured in media supplemented with 10% fetal bovine serum, 100 U/ml penicillin, and […] streptomycin at 37°C in a 5% CO2 incubator.
(§2) Cells were seeded at the appropriate amount (1–2×10^3 cells) in triplicate in 96-well plates for 24 h and then treated with various concentrations of STK295900. Cell growth was determined by using EZ-CyTox cell viability assay kit (Daeil Lab. Service, Seoul, Korea). Ten microliters of WST solution were added to the treated cells at 24, 48, 72, and 96 h. Cells were further incubated at 37°C for 2 h and the absorbance was measured at 450 nm.

[2] = test system: MCF7 cells; assay: Cell growth inhibition assay, MCF7; assay type: cell-based, human; conditions: Table 2 comparison, MCF7, growth up to 4 days
From the text: as §1, §2

[3] = test system: MRC5CV1 cells; assay: Cell growth inhibition assay, MRC5CV1; assay type: cell-based, human; conditions: Table 2 comparison, MRC5CV1, non-cancer, growth up to 4 days
From the text: as §1, §2

[4] = test system: HepG2 cells; assay: Cell growth inhibition assay, HepG2; assay type: cell-based, human; conditions: Table 2 comparison, HepG2, growth up to 4 days
From the text: as §1, §2

[5] = test system: HT-29 cells; assay: Cell growth inhibition assay, HT-29; assay type: cell-based, human; conditions: Table 2 comparison, HT-29, growth up to 4 days
From the text: as §1, §2

[6] = test system: cancer (HeLa, MCF7, HepG2, and HT-29) and non-cancerous cell lines (hTERT RPE-1, 267B1, and MRC5CV1); assay: Cell growth inhibition assay, cancer and non-cancerous cell lines compared; assay type: cell-based, human
From the text: as §1, §2

[7] = test system: HeLa cells; assay: Cell growth inhibition assay, HeLa; assay type: cell-based, human; conditions: Table 2 comparison, growth up to 4 days
From the text: as §1, §2

[8] = test system: 267B1 cells; assay: Cell growth inhibition assay, 267B1; assay type: cell-based, human; conditions: Table 2 comparison, 267B1, non-cancer, growth up to 4 days
From the text: as §1, §2

[9] = target: human topoisomerase 2α (Homo sapiens, UniProt P11388); assay: Supercoiled DNA relaxation assay for topoisomerase 2α; assay type: biochemical; conditions: pBR322, 37°C, 30 min
Sequence of human topoisomerase 2α (P11388 whole entry): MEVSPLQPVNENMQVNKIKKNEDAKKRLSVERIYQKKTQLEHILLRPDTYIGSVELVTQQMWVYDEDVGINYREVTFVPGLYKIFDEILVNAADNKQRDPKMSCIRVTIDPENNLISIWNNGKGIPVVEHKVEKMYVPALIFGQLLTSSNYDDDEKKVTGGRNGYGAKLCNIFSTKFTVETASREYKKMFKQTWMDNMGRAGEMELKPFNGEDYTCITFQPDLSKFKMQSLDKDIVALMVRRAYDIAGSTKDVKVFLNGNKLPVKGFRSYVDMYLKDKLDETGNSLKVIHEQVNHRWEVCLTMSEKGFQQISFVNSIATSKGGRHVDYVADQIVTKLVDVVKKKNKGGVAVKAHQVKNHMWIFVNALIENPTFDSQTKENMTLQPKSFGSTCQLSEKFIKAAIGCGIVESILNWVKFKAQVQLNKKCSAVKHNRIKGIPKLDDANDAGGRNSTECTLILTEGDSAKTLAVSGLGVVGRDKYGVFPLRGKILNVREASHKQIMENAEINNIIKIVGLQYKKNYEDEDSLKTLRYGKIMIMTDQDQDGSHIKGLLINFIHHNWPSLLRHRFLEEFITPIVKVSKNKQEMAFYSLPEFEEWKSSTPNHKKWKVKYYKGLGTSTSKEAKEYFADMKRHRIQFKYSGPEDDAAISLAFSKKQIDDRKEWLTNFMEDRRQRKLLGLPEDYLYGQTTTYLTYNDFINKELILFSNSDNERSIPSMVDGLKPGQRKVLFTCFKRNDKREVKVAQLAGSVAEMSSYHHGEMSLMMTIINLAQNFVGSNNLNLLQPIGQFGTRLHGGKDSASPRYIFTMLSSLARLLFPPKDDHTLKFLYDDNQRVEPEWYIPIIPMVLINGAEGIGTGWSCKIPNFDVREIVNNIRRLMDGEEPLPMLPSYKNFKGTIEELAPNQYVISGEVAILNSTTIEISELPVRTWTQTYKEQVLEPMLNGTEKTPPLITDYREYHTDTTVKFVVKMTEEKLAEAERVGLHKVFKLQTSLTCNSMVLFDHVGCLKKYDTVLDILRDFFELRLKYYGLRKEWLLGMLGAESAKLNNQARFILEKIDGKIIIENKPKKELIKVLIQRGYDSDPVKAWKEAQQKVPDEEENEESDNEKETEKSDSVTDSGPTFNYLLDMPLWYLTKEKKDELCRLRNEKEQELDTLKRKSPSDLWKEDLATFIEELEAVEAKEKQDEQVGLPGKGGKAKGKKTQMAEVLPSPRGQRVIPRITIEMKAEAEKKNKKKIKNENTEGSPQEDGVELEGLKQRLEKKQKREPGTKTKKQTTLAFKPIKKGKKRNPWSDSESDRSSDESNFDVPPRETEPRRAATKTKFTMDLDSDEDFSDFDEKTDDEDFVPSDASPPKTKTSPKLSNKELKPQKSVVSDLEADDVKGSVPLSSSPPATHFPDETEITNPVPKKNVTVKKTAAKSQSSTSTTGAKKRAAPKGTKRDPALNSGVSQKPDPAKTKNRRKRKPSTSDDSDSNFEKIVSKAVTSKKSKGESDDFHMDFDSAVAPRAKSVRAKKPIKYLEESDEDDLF
Protocol: After incubation, the reaction was terminated by addition of 2 µl of 10% SDS. The reaction mixtures were treated with 50 µg/ml proteinase K for 30 min at 37°C and then DNA was extracted with CIA (chloroform:isoamyl alcohol, 24∶1). Samples were resolved by electrophoresis on a 1% agarose gel. After staining the electrophoresed gel with ethidium bromide, DNA bands were visualized by UV light and photographed on Gel Doc XR.
(§3) Supercoiled DNA relaxation assay for (A) topoisomerase 1 (Top 1) and (B) topoisomerase 2 (Top 2). Supercoiled pBR322 plasmid DNA was incubated at 37°C for 30 min with Top 1 enzyme (A) or Top 2α (B) in the presence of various concentrations of indicated compounds. DNA samples were separated by electrophoresis on a 1% agarose gel, stained with ethidium bromide, and visualized by UV light. (−), supercoiled DNA alone; oc, open circular; sc, supercoiled. […] HeLa cells were pretreated with 10 µM of STK295900 for 30 min and then incubated with the indicated concentrations of camptothecin for 1 h. Treated cells were lysed and subjected to immunoblot analyses with antibody against γ-H2A.X. β-actin was used as a loading control. […] HeLa cells were pretreated with STK295900 at 10, 20, 30, or 50 µM or ICRF-193 at 10 µM for 30 min. […] Treated cells were then lysed and subjected to immunoblot analyses with antibody against γ-H2A.X. β-actin was used as a loading control.

[10] = target: T1, calf thymus topoisomerase 1 (Bos taurus, UniProt F1MN93); assay: Supercoiled DNA relaxation assay for topoisomerase 1; assay type: biochemical
T1 construct: purified calf thymus topoisomerase 1; purchased Takara Bio, Shiga, Japan; host or cells: calf thymus (tissue-purified)
T1 sequence (F1MN93 1-767): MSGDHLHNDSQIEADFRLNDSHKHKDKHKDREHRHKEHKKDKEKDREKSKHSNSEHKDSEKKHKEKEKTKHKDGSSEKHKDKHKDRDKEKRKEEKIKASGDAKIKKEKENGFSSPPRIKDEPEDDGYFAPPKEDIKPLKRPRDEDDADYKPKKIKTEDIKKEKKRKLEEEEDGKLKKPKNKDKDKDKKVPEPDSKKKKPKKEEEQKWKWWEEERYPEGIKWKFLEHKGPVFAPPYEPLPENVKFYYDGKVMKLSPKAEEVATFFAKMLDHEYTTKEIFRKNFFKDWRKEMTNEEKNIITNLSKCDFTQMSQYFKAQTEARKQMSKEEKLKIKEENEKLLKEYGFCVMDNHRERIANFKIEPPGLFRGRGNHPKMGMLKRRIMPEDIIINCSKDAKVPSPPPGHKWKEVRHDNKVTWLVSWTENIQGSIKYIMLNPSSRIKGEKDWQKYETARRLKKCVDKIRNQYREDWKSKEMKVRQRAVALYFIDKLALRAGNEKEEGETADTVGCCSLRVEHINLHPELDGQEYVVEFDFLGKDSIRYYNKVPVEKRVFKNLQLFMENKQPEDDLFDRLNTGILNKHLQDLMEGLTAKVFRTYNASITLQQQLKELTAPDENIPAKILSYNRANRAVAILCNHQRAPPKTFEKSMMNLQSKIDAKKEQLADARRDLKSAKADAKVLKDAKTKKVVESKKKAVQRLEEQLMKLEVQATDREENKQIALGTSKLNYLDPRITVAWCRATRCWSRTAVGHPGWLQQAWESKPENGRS

[11] = test system: HeLa cells; assay: Immunoblot of cell cycle and DNA damage checkpoint proteins; assay type: cell-based, human; conditions: 24 h, STK295900 1 or 5 µM, camptothecin 10 µM, etoposide 10 µM
Protocol: (§4) Cells were lysed with cold RIPA buffer (50 mM Tris-HCl pH 8.0, 150 mM NaCl, 1% NP-40, 0.5% sodium deoxycholate, 0.1% SDS) containing freshly added protease inhibitor, phosphatase inhibitor (SIGMA), 1 mM DTT, and 1 mM Na3VO4 on ice for 1 h. Whole cell lysates were centrifuged at 15,000 rpm for 20 min and then the supernatant was transferred into a new tube. An appropriate amount of cell lysate was subjected to SDS-PAGE. Then the resolved proteins were transferred onto a PVDF membrane (Bio-Rad) for immunoblot analyses with specific antibodies. The proteins were detected using chemiluminescence solution (Thermo Scientific, Rockford, IL).
(A) Flow cytometric analysis for cell cycle distribution. HeLa cells were treated with the indicated concentrations of STK295900 for 24 h. Treated cells were then stained with propidium iodide (PI) and processed for cell cycle analysis. The bar graph represents the mean percentage of each cell cycle phase ± SD from three independent experiments. * = p<0.05 versus the respective G1, S, or G2/M phase of DMSO-treated cells. (B) Mitotic index of STK295900. HeLa cells were treated with the indicated concentrations of STK295900 for 24 h. Cells were then stained with Hoechst 33342 and mitotic cells were counted. […] (C) Cell cycle related proteins expression. […] Treated cells were lysed and subjected to immunoblot analyses with antibodies against cyclin A, cyclin B1, phospho-Histone H3 (S10), and Histone H3. β-actin was used as a loading control.
(A) G2/M transition regulated proteins expression. […] GAPDH was used as a loading control. (B) DNA damage-checkpoint related proteins. […] Images were analyzed on a fluorescence microscope.

[12] = test system: HeLa cells; assay: Antagonistic effect on Top poison-induced DNA damage (γ-H2A.X immunoblot); assay type: cell-based, human; conditions: DMSO pretreated, 10 µM or 30 µM, 1 h
Protocol: as §4, §3
The lysates were subjected to immunoblot analyses with γ-H2A.X antibody.

Row | Compound | IC50 ([1]; Homo sapiens, hTERT-RPE1, 96 h) | IC50 ([2]; Homo sapiens, MCF7, 96 h) | IC50 ([3]; Homo sapiens, 96 h) | IC50 ([4]; Homo sapiens, HepG2, 96 h) | IC50 ([5]; Homo sapiens, HT-29, 96 h) | IC50 ([7]; Homo sapiens, 96 h) | Top 2α-mediated DNA relaxation [9] | IC50 ([8]; Homo sapiens, 96 h) | Phosphorylation of Cdk1 at T161 ([11]; nocodazole 200 ng/ml) | Wee1 and Cdc25C levels ([11]; nocodazole 200 ng/ml) | cyclin A and cyclin B1 levels ([11]; nocodazole 200 ng/ml) | inhibitory phosphorylation of Cdk1 (T14 and Y15) ([11]; nocodazole 200 ng/ml) | other results
1 | CCOc1ccc(-c2nc3ccc(-c4nc5ccc(N6CCN(C)CC6)cc5[nH]4)cc3[nH]2)cc1 [Hoechst 33342] |  |  |  |  |  |  |  |  |  |  |  |  | IC50 [1]: 1010 nM; IC50 [2]: 200 nM; IC50 [3]: 350 nM; IC50 [4]: 220 nM; IC50 [5]: 650 nM; selectivity of toxicity, cancer versus non-cancer cells ([6]; cancer (HeLa, MCF7, HepG2, HT-29) vs non-cancer (hTERT RPE-1, 267B1, MRC5CV1)): diverse and non-selective against cancer cells; IC50 [7]: 4560 nM; IC50 [8]: 840 nM
2 | COc1cc([C@@H]2c3cc4c(cc3[C@@H](O[C@@H]3O[C@@H]5CO[C@@H](C)O[C@H]5[C@H](O)[C@H]3O)[C@H]3COC(=O)[C@H]23)OCO4)cc(OC)c1O [Etoposide] | 450 nM | 13200 nM | 1290 nM | 840 nM | 10300 nM | 300 nM | inhibited Top 2α activity by reducing the relaxed DNA and increasing nicked-open-circular DNA | 390 nM |  |  |  |  | 
3 | CC[C@@]1(O)C(=O)OCc2c1cc1n(c2=O)Cc2cc3ccccc3nc2-1 [Camptothecin] | < 10 nM | 30 nM | 20 nM | 20 nM | 30 nM | 20 nM |  | < 10 nM | strongly enhanced | reduction of Cdc25C | accumulations of cyclin A and cyclin B1 | abundance | Top 1-mediated DNA relaxation [10]: inhibited DNA relaxation activity of Top 1 in a dose-dependent manner; p53 and p21 levels [11]: significantly increased; phosphorylation-dependent activation of ATM (S1981), ATR (S428), Chk1 (S345), and Chk2 (T68) [11]: activation of ATM, Chk1, and Chk2; IC50 ([6]; Homo sapiens, all cell lines tested (HeLa, MCF7, HepG2, HT-29, hTERT RPE-1, 267B1, MRC5CV1)): < 30 nM; γ-H2A.X induction in control cells (immunoblot) [12]: strongly induced γ-H2A.X
4 | ICRF-193 |  |  |  |  |  |  | accumulation of supercoiled DNA |  |  |  |  |  | 
5 | COC(=O)Nc1nc2ccc(C(=O)c3cccs3)cc2[nH]1 [nocodazole] |  |  |  |  |  |  |  |  | strongly enhanced | undetectable levels of Wee1 but activation of Cdc25C | high level of cyclin B1 and undetectable level of cyclin A | could not be detected | Histone H3 phosphorylation at S10 ([11]; nocodazole 200 ng/ml): detected only in cells treated with nocodazole
